Results reported in patent US20250235543A1, “MODIFIED PROTEINS AND PROTEIN DEGRADERS” (Cullgen (Shanghai), Inc., priority 2021, published 2025).
Where two headings read alike, the source gives them in different places.

What was measured:
[1] = system: cyclin D1; assay: Cyclin D1 percentage degradation in Calu-1 cells (immunoblotting); format: cell-based; details: 16 hours
Method: (§1) […] A: protein percentage degradation >=80%; B: protein percentage degradation <80%, and >=50%; C: protein percentage degradation <50%, and >=30%; D: protein percentage degradation <30%.
(§2) Cultured cells were washed with cold PBS once and lysed in cold RIPA buffer supplemented with protease inhibitors and phosphatase inhibitors (Beyotime Biotechnology). The solutions were then incubated at 4° C. for 30 min with gentle agitation to fully lysed cells. Cell lysates were centrifuged at 13,000 rpm for 10 min at 4° C. and pellets were discarded. Total protein concentrations in the lysates were determined following BCA assays (Beyotime Biotechnology). Cell lysates were mixed with Laemmli loading buffer and heated at 99° C. for 5 min. Proteins were resolved on SDS-PAGE and visualized using Western ECL Substrate kits on a ChemiDoc MP Imaging system (Bio-Rad). Protein bands were quantitated using the Image Lab software provided by Bio-Rad.

[2] = biological target: T1, CDK4 (Homo sapiens, UniProt P11802); assay: CDK4 percentage degradation in Calu-1 cells (immunoblotting); format: cell-based; details: for inhibition at 0.2 µM: read-out: CDK4 Degradation (200 nM); for inhibition at 10 µM: read-out: CDK4 Degradation (10 μM)
T1 construct: endogenous in cells; host or cells: Calu-1
Method: as §1, §2

T1 sequence (P11802 2-303 limits assumed): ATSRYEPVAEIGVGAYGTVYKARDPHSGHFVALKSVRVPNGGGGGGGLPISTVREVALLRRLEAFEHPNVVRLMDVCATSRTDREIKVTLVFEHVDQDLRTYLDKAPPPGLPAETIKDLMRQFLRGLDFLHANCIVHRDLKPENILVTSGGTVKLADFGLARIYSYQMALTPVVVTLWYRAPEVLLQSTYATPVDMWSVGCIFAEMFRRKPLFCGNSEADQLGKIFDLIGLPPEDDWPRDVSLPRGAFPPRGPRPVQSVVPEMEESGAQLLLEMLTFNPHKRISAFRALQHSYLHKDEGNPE
T1 sequence (P24385 whole entry partner): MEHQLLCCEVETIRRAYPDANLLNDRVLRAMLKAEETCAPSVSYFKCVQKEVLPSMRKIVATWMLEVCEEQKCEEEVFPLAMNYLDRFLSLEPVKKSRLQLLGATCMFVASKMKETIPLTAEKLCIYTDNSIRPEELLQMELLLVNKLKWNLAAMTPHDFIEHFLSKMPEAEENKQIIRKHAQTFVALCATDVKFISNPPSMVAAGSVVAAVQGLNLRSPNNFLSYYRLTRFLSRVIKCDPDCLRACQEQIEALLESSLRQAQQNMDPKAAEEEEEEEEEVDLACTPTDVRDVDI
T1 sequence (Q16531 2-1140 limits assumed, further chain): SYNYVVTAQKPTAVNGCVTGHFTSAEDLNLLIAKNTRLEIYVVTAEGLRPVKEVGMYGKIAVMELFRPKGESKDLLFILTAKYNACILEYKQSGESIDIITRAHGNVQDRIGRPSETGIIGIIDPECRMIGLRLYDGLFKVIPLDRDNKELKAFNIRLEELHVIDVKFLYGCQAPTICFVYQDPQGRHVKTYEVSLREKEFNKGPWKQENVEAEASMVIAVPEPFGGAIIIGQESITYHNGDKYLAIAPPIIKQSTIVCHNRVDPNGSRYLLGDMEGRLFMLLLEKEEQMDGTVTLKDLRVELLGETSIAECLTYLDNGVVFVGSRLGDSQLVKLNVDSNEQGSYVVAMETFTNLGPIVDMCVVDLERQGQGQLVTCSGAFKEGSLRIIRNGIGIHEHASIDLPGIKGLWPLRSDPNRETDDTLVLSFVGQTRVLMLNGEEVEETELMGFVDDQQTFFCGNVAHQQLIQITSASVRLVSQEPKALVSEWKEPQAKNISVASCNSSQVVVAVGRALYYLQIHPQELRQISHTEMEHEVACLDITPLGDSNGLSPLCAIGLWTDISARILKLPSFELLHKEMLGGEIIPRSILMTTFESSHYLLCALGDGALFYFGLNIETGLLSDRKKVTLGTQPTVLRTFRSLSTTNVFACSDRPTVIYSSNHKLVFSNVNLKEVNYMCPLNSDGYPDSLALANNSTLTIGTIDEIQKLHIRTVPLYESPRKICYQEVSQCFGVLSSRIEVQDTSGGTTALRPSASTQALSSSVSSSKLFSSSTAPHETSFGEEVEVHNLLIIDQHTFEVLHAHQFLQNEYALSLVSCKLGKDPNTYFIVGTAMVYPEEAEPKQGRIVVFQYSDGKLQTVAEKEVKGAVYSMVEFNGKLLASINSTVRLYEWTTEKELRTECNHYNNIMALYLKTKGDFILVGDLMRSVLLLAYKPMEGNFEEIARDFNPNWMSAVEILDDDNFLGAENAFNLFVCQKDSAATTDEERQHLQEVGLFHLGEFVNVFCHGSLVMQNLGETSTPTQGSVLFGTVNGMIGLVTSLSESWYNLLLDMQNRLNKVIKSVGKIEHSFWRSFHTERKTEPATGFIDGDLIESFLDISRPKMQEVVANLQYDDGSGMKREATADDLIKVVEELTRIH

Row | inhibition at 0.2 µM ([2]; Calu-1 cells, 200 nM, 16 hours) [%] | inhibition at 10 µM ([2]; Calu-1 cells, 16 hours) [%] | Compound | CyclinD1 Degradation (200 nM) [1] | CyclinD1 Degradation (10 μM) [1] | inhibition at 0.2 µM ([2]; Calu-1, 16 h) [%]
1 | 50 to 80 | – | CC(=O)c1c(C)c2cnc(Nc3ccc(N4CCN(CC(=O)NCCOCCOCCC(=O)Nc5ccccc5C(=O)Nc5ccc(C)c(C6CC6)n5)CC4)cn3)nc2n(C2CCCC2)c1=O [CPD-270, 2-(3-(2-(2-(2-(4-(6-((6-Acetyl-8-cyclopentyl-5-methyl-7-oxo-7,8-dihydropyrido[2,3-d]pyrimidin-2-yl)amino)pyridin-3-yl)piperazin-1-yl)acetamido)ethoxy)ethoxy)propanamido)-N-(6-cyclopropyl-5-methylpyridin-2-yl)benzamide] | A (protein percentage degradation >=80%) | – | –
2 | 50 to 80 | – | CC(=O)c1c(C)c2cnc(Nc3ccc(N4CCN(CC(=O)NCCOCCOCCC(=O)Nc5ccccc5C(=O)Nc5ccc(C)nn5)CC4)cn3)nc2n(C2CCCC2)c1=O [CPD-056, 2-(3-(2-(2-(2-(4-(6-((6-Acetyl-8-cyclopentyl-5-methyl-7-oxo-7,8-dihydropyrido[2,3-d]pyrimidin-2-yl)amino)pyridin-3-yl)piperazin-1-yl)acetamido)ethoxy)ethoxy)propanamido)-N-(6-methylpyridazin-3-yl)benzamide] | A (protein percentage degradation >=80%) | – | –
3 | – | < 30 | Cc1nc(NC(=O)c2ccccc2NC(=O)CNC(=O)CN2CCN(c3ccc(Nc4ncc(F)c(-c5cc(F)c6nc(C)n(C(C)C)c6c5)n4)nc3)CC2)sc1C [CPD-300, N-(4,5-Dimethylthiazol-2-yl)-2-(2-(2-(4-(6-((5-fluoro-4-(4-fluoro-1-isopropyl-2-methyl-1H-benzo[d]imidazol-6-yl)pyrimidin-2-yl)amino)pyridin-3-yl)piperazin-1-yl)acetamido)acetamido)benzamide] | – | D (protein percentage degradation < 30%) | –
4 | – | – | CC(=O)c1c(C)c2cnc(Nc3ccc(N4CCN(CC(=O)NCCC(=O)Nc5ccccc5C(=O)Nc5nc(C)c(C)s5)CC4)cn3)nc2n(C2CCCC2)c1=O [CPD-146, 2-(3-(2-(4-(6-((6-Acetyl-8-cyclopentyl-5-methyl-7-oxo-7,8-dihydropyrido[2,3-d]pyrimidin-2-yl)amino)pyridin-3-yl)piperazin-1-yl)acetamido)propanamido)-N-(4,5-dimethylthiazol-2-yl)benzamide] | D (protein percentage degradation <30%) | – | < 30
5 | < 30 | – | CC(=O)c1c(C)c2cnc(Nc3ccc(N4CCN(CC(=O)NCCCCCCCNC(=O)COc5ccc(C(=O)Nc6ncc(C)s6)c(C)c5)CC4)cn3)nc2n(C2CCCC2)c1=O [CPD-037, 4-(2-((7-(2-(4-(6-((6-Acetyl-8-cyclopentyl-5-methyl-7-oxo-7,8-dihydropyrido[2,3-d]pyrimidin-2-yl)amino)pyridin-3-yl)piperazin-1-yl)acetamido)heptyl)amino)-2-oxoethoxy)-2-methyl-N-(5-methylthiazol-2-yl)benzamide] | D (protein percentage degradation <30%) | – | –
6 | – | < 30 | Cc1nc(NC(=O)c2ccccc2NC(=O)CCOCCOCCOCCOCCOCCNC(=O)CN2CCN(Cc3ccc(Nc4ncc(F)c(-c5cc(F)c6nc(C)n(C(C)C)c6c5)n4)nc3)CC2)sc1C [CPD-284, N-(4,5-Dimethylthiazol-2-yl)-2-(1-(4-((6-((5-fluoro-4-(4-fluoro-1-isopropyl-2-methyl-1H-benzo[d]imidazol-6-yl)pyrimidin-2-yl)amino)pyridin-3-yl)methyl)piperazin-1-yl)-2-oxo-6,9,12,15,18-pentaoxa-3-azahenicosan-21-amido)benzamide] | – | D (protein percentage degradation < 30%) | –
7 | – | < 30 | Cc1nc(NC(=O)c2ccccc2NC(=O)CCCNC(=O)CN2CCN(c3ccc(Nc4ncc5cc6n(c5n4)C4(CCCCC4)CNC6=O)nc3)CC2)sc1C [CPD-316, N-(4,5-Dimethylthiazol-2-yl)-2-(4-(2-(4-(6-((6′-oxo-7′,8′-dihydro-6′H-spiro[cyclohexane-1,9′-pyrazino[1′,2′:1,5]pyrrolo[2,3-d]pyrimidin]-2′-yl)amino)pyridin-3-yl)piperazin-1-yl)acetamido)butanamido)benzamide] | – | D (protein percentage degradation < 30%) | –
8 | – | 30 to 50 | Cc1nc(NC(=O)c2ccccc2NC(=O)CCCCCNC(=O)CN2CCN(c3ccc(Nc4ncc5cc6n(c5n4)C4(CCCCC4)CNC6=O)nc3)CC2)sc1C [CPD-318, N-(4,5-Dimethylthiazol-2-yl)-2-(6-(2-(4-(6-((6′-oxo-7′,8′-dihydro-6′H-spiro[cyclohexane-1,9′-pyrazino[1′,2′:1,5]pyrrolo[2,3-d]pyrimidin]-2′-yl)amino)pyridin-3-yl)piperazin-1-yl)acetamido)hexanamido)benzamide] | – | D (protein percentage degradation < 30%) | –
9 | < 30 | – | CC(=O)c1c(C)c2cnc(Nc3ccc(N4CCN(CC(=O)NCCCCCNC(=O)COc5ccc(C(=O)Nc6ncc(C)s6)c(C)c5)CC4)cn3)nc2n(C2CCCC2)c1=O [CPD-036, 4-(2-((5-(2-(4-(6-((6-Acetyl-8-cyclopentyl-5-methyl-7-oxo-7,8-dihydropyrido[2,3-d]pyrimidin-2-yl)amino)pyridin-3-yl)piperazin-1-yl)acetamido)pentyl)amino)-2-oxoethoxy)-2-methyl-N-(5-methylthiazol-2-yl)benzamide] | D (protein percentage degradation <30%) | – | –
10 | < 30 | – | CC(=O)c1c(C)c2cnc(Nc3ccc(N4CCN(C(=O)CCCCCCNc5cccc(C(=O)Nc6nc(C)c(C)s6)c5C)CC4)cn3)nc2n(C2CCCC2)c1=O [CPD-138, 3-((7-(4-(6-((6-Acetyl-8-cyclopentyl-5-methyl-7-oxo-7,8-dihydropyrido[2,3-d]pyrimidin-2-yl)amino)pyridin-3-yl)piperazin-1-yl)-7-oxoheptyl)amino)-N-(4,5-dimethylthiazol-2-yl)-2-methylbenzamide] | D (protein percentage degradation <30%) | – | –
11 | > 80 | – | CNc1ccc(C(=O)Nc2nc(C)c(C)s2)c(NCCCCCCCNC(=O)CN2CCN(c3ccc(Nc4ncc5c(C)c(C(C)=O)c(=O)n(C6CCCC6)c5n4)nc3)CC2)c1 [CPD-370, 2-((7-(2-(4-(6-((6-Acetyl-8-cyclopentyl-5-methyl-7-oxo-7,8-dihydropyrido[2,3-d]pyrimidin-2-yl)amino)pyridin-3-yl)piperazin-1-yl)acetamido)heptyl)amino)-N-(4,5-dimethylthiazol-2-yl)-4-(methylamino)benzamide] | A (protein percentage degradation >=80%) | – | –
12 | 50 to 80 | – | CC(=O)c1c(C)c2cnc(Nc3ccc(N4CCN(CC(=O)NCCOCCOCCC(=O)Nc5ccccc5C(=O)Nc5cc(C)n(C(C)C)n5)CC4)cn3)nc2n(C2CCCC2)c1=O [CPD-076, 2-(3-(2-(2-(2-(4-(6-((6-Acetyl-8-cyclopentyl-5-methyl-7-oxo-7,8-dihydropyrido[2,3-d]pyrimidin-2-yl)amino)pyridin-3-yl)piperazin-1-yl)acetamido)ethoxy)ethoxy)propanamido)-N-(1-isopropyl-5-methyl-1H-pyrazol-3-yl)benzamide] | C (protein percentage degradation <50%, and >=30%) | – | –
13 | 50 to 80 | – | CNc1ccc(C(=O)Nc2ccc(C)c(C3CC3)n2)c(NCCCCCNC(=O)CN2CCN(c3ccc(Nc4ncc5c(C)c(C(C)=O)c(=O)n(C6CCCC6)c5n4)nc3)CC2)c1 [CPD-371, 2-((5-(2-(4-(6-((6-Acetyl-8-cyclopentyl-5-methyl-7-oxo-7,8-dihydropyrido[2,3-d]pyrimidin-2-yl)amino)pyridin-3-yl)piperazin-1-yl)acetamido)pentyl)amino)-N-(6-cyclopropyl-5-methylpyridin-2-yl)-4-(methylamino)benzamide] | A (protein percentage degradation >=80%) | – | –
14 | – | 50 to 80 | Cc1nc(NC(=O)c2ccccc2NC(=O)CCOCCOCCOCCNC(=O)CN2CCN(c3ccc(Nc4ncc5cc(C(=O)N(C)C)n(C6CCCC6)c5n4)nc3)CC2)sc1C [CPD-296, 7-Cyclopentyl-2-((5-(4-(15-((2-((4,5-dimethylthiazol-2-yl)carbamoyl)phenyl)amino)-2,15-dioxo-6,9,12-trioxa-3-azapentadecyl)piperazin-1-yl)pyridin-2-yl)amino)-N,N-dimethyl-7H-pyrrolo[2,3-d]pyrimidine-6-carboxamide] | – | A (protein percentage degradation >= 80%) | –
15 | – | – | CC(=O)c1c(C)c2cnc(Nc3ccc(N4CCN(C(=O)CCOCCOCCOCCOCCOCCOCCNc5cccc(C(=O)Nc6nc(C)c(C)s6)c5C)CC4)cn3)nc2n(C2CCCC2)c1=O [CPD-133, 3-((21-(4-(6-((6-Acetyl-8-cyclopentyl-5-methyl-7-oxo-7,8-dihydropyrido[2,3-d]pyrimidin-2-yl)amino)pyridin-3-yl)piperazin-1-yl)-21-oxo-3,6,9,12,15,18-hexaoxahenicosyl)amino)-N-(4,5-dimethylthiazol-2-yl)-2-methylbenzamide] | A (protein percentage degradation >=80%) | – | 50 to 80
